In ChEMBL document CHEMBL3430912, “GSK Tres Cantos Anti-Kinetoplastid Screening (TCAKS) Data”:

Assays:
Trypanosoma cruzi [1] = experiment: GSK_TCAKS: pIC50 Trypanosoma cruzi viability assay using beta-GAL activity. This assay was run at single shot at 5uM compound concentration per well. The biological reagents consisted of NIH-3T3 host cells and trypomastigotes parasitic cells; both cell types were set to a 3.3 * 10^5 cells/mL dilution in assay DMEM by means of a CASY cell counter device using a 60um capillary. 6 uL of the mixture were dispensed per well (about 1 * 10^3 host-cells and 1 * 10^3 parasites) with a Multidrop Combi dispenser. […] In all wells, the percentage of DMSO never exceeded 0.5%. Plates incubated for four days at 37C, 5% CO2. The substrate used for the assay fluorescence intensity (FLINT) readout was resorufin-beta-D-galactopiranoside (Sigma-Aldrich) at 5uM per well. It was diluted in PBS supplemented with the soft detergent Igepal (Fluka).; type: functional, organism-based, Mus musculus; conditions: Tulahuen, NIH3T3
Trypanosoma cruzi [2] = experiment: (§1) GSK_TCAKS: pIC50 Trypanosoma cruzi Imaging: Infected Cells. […] Cells were then washed once with PBS before infection. T. cruzi trypomastigotes, collected at days 5 to 8 after infection from LLC-MK2 parasite infected cultures, were allowed to swim out for 4h at 37C from a centrifuged pellet (2,500 rpm/10 min/room temperature). Trypomastigotes were then collected and counted in a CASY Cell Counter. Trypomastigotes, in supplemented DMEM, were added to H9c2 cultures in a multiplicity of infection of 1 and incubated for 18 h. Cells were washed once with PBS before incubation of the infected H9c2 monolayer with trypsin (Life-Technologies) to detach cells from the flask. Cells were counted in a CASY Cell Counter using a 150 um capillary and their density set at 5 * 10^4 cells per mL in supplemented assay DMEM. Infected H9c2 were dispensed into 384-well poly-lysine coated assay plates at 50uL per well using a Multidrop Combi dispenser. After seeding them, the plates were incubated at 37C, 5% CO2 for 72h. Cultures were then fixed and stained by addition of 50 uL of a solution containing 8% formaldehyde and 4 uM DRAQ5 DNA dye (BioStatus, UK) per well. […] Five images were collected per well for reliable statistical analysis. Automated image analysis was performed with a script developed on Acapella High Content Imaging and Analysis Software (PerkinElmer). Output: percentage of infected cells per well as a second infection marker.; type: functional, organism-based, Rattus norvegicus; conditions: H9c2, 4 h
Trypanosoma cruzi [3] = experiment: GSK_TCAKS: pIC50 Trypanosoma cruzi Imaging: Amastigotes/Cell. […] Cells were then washed once with PBS before infection. T. cruzi trypomastigotes, collected at days 5 to 8 after infection from LLC-MK2 parasite infected cultures, were allowed to swim out for 4h at 37C from a centrifuged pellet (2,500 rpm/10 min/room temperature). Trypomastigotes were then collected and counted in a CASY Cell Counter. Trypomastigotes, in supplemented DMEM, were added to H9c2 cultures in a multiplicity of infection of 1 and incubated for 18 h. Cells were washed once with PBS before incubation of the infected H9c2 monolayer with trypsin (Life-Technologies) to detach cells from the flask. Cells were counted in a CASY Cell Counter using a 150 um capillary and their density set at 5 * 10^4 cells per mL in supplemented assay DMEM. Infected H9c2 were dispensed into 384-well poly-lysine coated assay plates at 50uL per well using a Multidrop Combi dispenser. After seeding them, the plates were incubated at 37C, 5% CO2 for 72h. Cultures were then fixed and stained by addition of 50 uL of a solution containing 8% formaldehyde and 4 uM DRAQ5 DNA dye (BioStatus, UK) per well. […] Five images were collected per well for reliable statistical analysis. Automated image analysis was performed with a script developed on Acapella High Content Imaging and Analysis Software (PerkinElmer). Output: number of amastigotes per cell as infection level measurement.; type: functional, organism-based, Rattus norvegicus; conditions: H9c2, 4 h
Trypanosoma cruzi [4] = experiment: as §1, with “H2C9” for “Trypanosoma cruzi”, “H9c2 Host Cardiomyocytes.” for “Infected Cells.”, “Number” for “percentage”, “H9c2 Host Cardiomyocytes nuclei to determine drug-related cytotoxicity.” for “infected cells per well as a second infection marker.”; type: functional, organism-based, Rattus norvegicus; conditions: H9c2, 4 h
Leishmania donovani [5] = experiment: GSK_TCAKS: pIC50 Leishmania donovani viability assay using fluorescence intensity. Assay plates (1536-well) were prepared by adding 30nL per well of compound. For single shot assay, the final compound concentration was 5uM. […] Briefly, eGFP LdBOB axenic amastigotes were harvested, fixed and counted in a CASY cell counter (Roche-Applied Science). A final concentration of 1.5 * 10^5 cells per well were prepared in amastigote media containing 500 U/mL penicillin/streptomycin (Invitrogen) and 6uL was dispensed to each experimental well using a Multidrop Combi dispenser (Thermo Scientific). 6uL of assay media was dispensed to control columns used as reference for 100% compound response. Following incubation for 72 h at 37C, 5% CO2, 2 uL of resazurin was added to each well at a final concentration of 0.5 mM in phosphate buffered saline (PBS) with IGEPAL (Sigma-Aldrich), 0.05% (v/v).; type: functional, organism-based
Leishmania donovani [6] = experiment: (§2) GSK_TCAKS: pIC50 Leishmania donovani Imaging: Infected Macrophages. Assay plates (384-well) were prepared by adding 250nL of compound to each well. For single shot assay, the final compound concentration was 5 uM. […] Automated image analysis was performed with a script developed on Acapella High Content Imaging and Analysis Software (PerkinElmer). Output: Percent of infected macrophage cells were reported for each well.; type: functional, organism-based, Homo sapiens; conditions: THP-1
Leishmania donovani [7] = experiment: as §2, with “Amastigotes/Macrophages.” for “Infected Macrophages.”, “Average number” for “Percent”, “amastigotes per” for “infected”, “cell” for “cells”; type: functional, organism-based, Homo sapiens; conditions: THP-1
Leishmania donovani [8] = experiment: as §2, with “THP-1 Host” for “Infected”, “THP-1 cell count” for “Percent of infected macrophage cells”; type: functional, organism-based, Homo sapiens
[9] = system: Trypanosoma brucei brucei; experiment: GSK_TCAKS: pIC50 Trypanosoma brucei viability assay using fluorescence intensity. Assay plates (1536-well) were prepared by dispensing 25nL of compound solution per well using an Echo acoustic dispenser (Labcyte).; type: functional, organism-based; conditions: Lister 427, 2 h
[10] = system: Trypanosoma brucei brucei; experiment: GSK_TCAKS: pIC50 Trypanosoma brucei viability assay using luminiscence. Assay plates (1536-well) were prepared. T. brucei cultures were harvested and counted in a CASY cell counter. A parasite suspension was prepared at a final concentration of 5 * 10^4 cells/mL in complete HMI9 medium and 6uL was dispensed to all wells containing compounds using a Multidrop Combi dispenser. 6uL of HMI9 media with 0.4% DMSO were dispensed to control columns. Plates were incubated for 24 h at 37C, 5% CO2 then tempered for 10 min at room temperature. ATP content was quantified by adding 4 uL of CellTiter-Glo Reagent (Promega) according to the manufacturer's instructions. Luminescence was measured using a ViewLux.; type: functional, organism-based; conditions: Lister 427, CASY
[11] = GSK_TCAKS: pIC50 HepG2 human cell line viability assay using luminiscence. […] Seeding density was checked to ensure that new mono-layers were not more than 50% confluent at the time of harvesting. Cell suspension was added to 500 mL of the same medium at a final density of 1.2 * 10^5 cells/mL. This cell suspension was dispensed (25 uL, 3000 cells per well) into 384-well clear-bottom plates using a Multidrop Combi dispenser. Prior to addition of the cell suspension, the screening compounds (250 nL) were pre-dispensed into the plates with an Echo liquid handler. Plates were incubated for 48 h at 37C, 5% CO2. After incubation, plates equilibrated at room temperature for 30 min before proceeding to develop the luminescent signal. The signal developer, CellTiter-Glo Reagent, was allowed to equilibrate at room temperature for 30 min and added to the plates (25uL per well) using a Multidrop Combi dispenser. Plates were left for 10 min at room temperature for stabilization and then read using a ViewLux.; type: toxicity, cell-based
NIH3T3 = experiment: GSK_TCAKS: pIC50 NIH 3T3 cell line viability assay using luminiscence. Tissue culture surface treated assay plates (1536-well) were used. […] The 100% cells survival control was determined exposing the host-cells to a 0.5% DMSO concentration, whereas the 100% toxicity control was achieved by seeding the cells in presence of Amphotericin B at 50uM. Plates were incubated for four days at 37C, 5% CO2. The assay readout was developed by addition of 5uL of CellTiter-Glo Reagent following the manufacturer's instructions. Luminiscence was measured using a ViewLux.; type: functional, cell-based; conditions: Mus musculus, NIH3T3, 96 h
[12] = target: Sterol 14-alpha demethylase (Trypanosoma cruzi (strain CL Brener), UniProt Q7Z1V1); experiment: GSK_TCAKS: pIC50 CYP51 from Trypanosoma cruzi.; type: functional
Sterol 14-alpha demethylase, sequence (Q7Z1V1 whole entry): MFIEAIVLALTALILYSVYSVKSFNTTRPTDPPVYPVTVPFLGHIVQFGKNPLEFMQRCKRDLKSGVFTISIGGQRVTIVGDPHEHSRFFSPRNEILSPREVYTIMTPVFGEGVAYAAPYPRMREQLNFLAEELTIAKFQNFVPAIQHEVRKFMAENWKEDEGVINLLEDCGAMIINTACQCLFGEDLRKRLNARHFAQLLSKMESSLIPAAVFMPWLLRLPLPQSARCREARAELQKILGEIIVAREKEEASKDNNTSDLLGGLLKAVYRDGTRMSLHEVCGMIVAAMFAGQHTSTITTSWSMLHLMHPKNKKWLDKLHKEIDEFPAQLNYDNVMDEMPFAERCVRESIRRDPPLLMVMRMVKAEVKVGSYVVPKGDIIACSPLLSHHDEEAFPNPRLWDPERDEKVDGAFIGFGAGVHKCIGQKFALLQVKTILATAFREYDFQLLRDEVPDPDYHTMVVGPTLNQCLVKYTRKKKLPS

SMILES | IC50 (Trypanosoma cruzi [1]) [µM] | IC50 (Trypanosoma cruzi [2]) [µM] | IC50 (Trypanosoma cruzi [3]) [µM] | IC50 (Trypanosoma cruzi [4]) [µM] | IC50 (Leishmania donovani [5]) [µM] | IC50 (Leishmania donovani [6]) [µM] | IC50 (Leishmania donovani [7]) [µM] | IC50 (Leishmania donovani [8]) [µM] | IC50 [9] [µM] | IC50 [10] [µM] | IC50 at 48 h [11] [µM] | IC50 (NIH3T3) [µM] | IC50 [12] [µM]
CC(C)(C)C(Cn1ccnc1)NC(=O)c1ccc2nc(C3CC3)oc2c1 (stereo not given) | 0.1 | 0.1 | 0.0794 | > 50.1 | 20 | > 50.1 | > 50.1 | 15.8 | > 39.8 | > 39.8 | > 100 | > 50.1 | 0.1
O=C(NCC(c1cccnc1)N1CCc2ccccc2C1)C(=O)Nc1cccc(Cl)c1 (stereo not given) | 0.2 | 0.0794 | 0.0631 | 25.1 | 1.26 | > 50.1 | > 50.1 | > 50.1 | 15.8 | 20 | > 100 | 25.1 | 0.0631
CCOc1cnn(C)c(=O)c1Nc1ccc(C(=O)NCc2ccc(F)cc2)cc1 | 0.251 | 0.1 | 0.126 | > 50.1 | 31.6 | > 50.1 | > 50.1 | 31.6 | > 39.8 | > 39.8 | > 100 | > 50.1 | 3.98
CN(Cc1nnnn1C1CCN(Cc2ccc(-n3ccnc3)cc2)CC1)c1ccc(F)cc1F | 0.316 | 0.316 | 0.316 | > 50.1 | > 50.1 | > 50.1 | 15.8 | > 50.1 | > 39.8 | > 39.8 | > 100 | 25.1 | 0.126
CN(Cc1ccccc1)Cc1nnnn1C1CCN(Cc2ccc(-n3ccnc3)cc2)CC1 | 0.398 | 0.316 | 0.251 | > 50.1 | > 50.1 | > 50.1 | > 50.1 | 31.6 | > 39.8 | > 39.8 | > 100 | 3.98 | 0.0501
O=C(NC1C(=O)N(c2ccccc2)C1c1cccnc1)c1ccc(Cl)s1 (stereo not given) | 0.0316 | 0.0501 | 0.0398 | > 50.1 | 1 | > 50.1 | 0.794 | > 50.1 | > 39.8 | > 39.8 | > 100 | > 50.1 | 0.2
CCn1nccc1CN(C)C(=O)C=Cc1ccc(Cl)cc1 | 0.224 | 0.316 | 0.316 | > 50.1 | 15.8 | > 50.1 | > 50.1 | > 50.1 | 31.6 | > 39.8 | > 100 | > 50.1 | 0.316
Cc1n[nH]c2c1C(c1ccc(OCc3ccccc3F)cc1)SCC(=O)N2 (stereo not given) | 2 | 3.16 | 0.794 | > 50.1 | 39.8 | > 50.1 | > 50.1 | > 50.1 | 25.1 | > 39.8 | > 100 | > 50.1 | > 100
CCCN(Cc1ccc(OC)c(OC)c1)Cc1cc(=O)c2c(C)cc(C)cc2[nH]1 | 2 | 2 | 0.501 | > 50.1 | 20 | 25.1 | 20 | 5.01 | 25.1 | > 39.8 | 63.1 | 31.6 | > 100
CCC1Oc2cc(S(=O)(=O)N(C)CC(=O)N3CCc4ccccc4C3)c(C)cc2NC1=O (stereo not given) | 0.2 | 0.251 | 0.251 | > 50.1 | > 50.1 | > 50.1 | 31.6 | > 50.1 | 25.1 | 31.6 | > 100 | > 50.1 | 0.794
Cc1nc(N2CCC(C(=O)N3CCC(O)(c4cccnc4)CC3)CC2)nc2ccc(C(C)C)cc12 | 1.58 | 0.316 | 0.398 | 39.8 | > 50.1 | 50.1 | 10 | 25.1 | 20 | 31.6 | 79.4 | 25.1 | 0.126
CN(Cc1ccc(F)cc1)c1ccc(OCC(=O)N2CCCCC2c2cccnc2)nn1 (stereo not given) | 0.316 | 0.398 | 0.398 | > 50.1 | 15.8 | > 50.1 | > 50.1 | 31.6 | > 39.8 | > 39.8 | > 100 | 10 | 0.0501
Cc1ccc(NC(=O)C(C)n2nc([N+](=O)[O-])c(Br)c2C)cc1Cl (stereo not given) | 2.51 | 6.31 | 3.16 | > 50.1 | > 50.1 | > 50.1 | > 50.1 | > 50.1 | 15.8 | > 39.8 | 79.4 | 12.6 | > 100
c1ccc(CCNCc2cncc3nc(-c4cnccn4)n(C4CCCCC4)c23)cc1 | 0.316 | 0.126 | 0.126 | > 50.1 | > 50.1 | > 50.1 | > 50.1 | > 50.1 | 31.6 | > 39.8 | > 100 | 6.31 | 0.1
CN(Cc1nc2ccccc2s1)C(=O)C=Cc1cc2ccccc2o1 | 0.631 | 0.794 | 1 | > 50.1 | 50.1 | > 50.1 | 15.8 | > 50.1 | 31.6 | > 39.8 | > 100 | 31.6 | 0.158
